Experimental data as given in patent US20150064328A1, “REBAUDIOSIDE C AND ITS STEREOISOMERS AS NATURAL PRODUCT SWEETNESS ENHANCERS” (Redpoint Bio Corporation, priority 2009, published 2015).
“Also recorded” adds a separate entry of the source.

Columns and labels:
[1] = cited from earlier work
[2] = Double-blind controlled sweetness intensity test, sequential monadic, sip and spit (Example 1 protocol); assay type: in vivo, human
From the text: As used herein, the term “sweetness intensity” refers to the relative strength of sweet sensation as observed or experienced by an individual, e.g., a human, or a degree or amount of sweetness detected by a taster, for example on the scale from 0 (none) to 8 (very strong) (see Example 1) used in sensory evaluations according to the procedure described in American Society for Testing Materials, Special Technical Publication-434: “Manual on Sensory Testing Methods,” ASTM International, West Conshohocken, Pa. (1996). The sweetness enhancing effect of 300 μM Reb C (Chromadex, CA; purity 94.9%; 2.9% impurities other than water) on 5% (w/v-%) sucrose solution was evaluated in a double-blind controlled test conducted according to the following protocol. Three products were evaluated by trained judges as follows: • high concentration sucrose (7% w/v) • low concentration sucrose (5% w/v) • low concentration sucrose+sweetness enhancer (test compound) The products were evaluated using a sequential monadic test protocol. Subjects were given three samples to evaluate. Each subject was directed to swirl the first sample in his or her mouth for 3-5 seconds, expectorate the entire sample into a discard cup, and then assess the sweetness intensity of the sample. The intensity was rated on a score card by marking a numerical value along a scale from 0 to 8 (e.g., 0-none, 2=slight, 4=definite, 8=very strong). Following the decision regarding the sweetness intensity, subjects were instructed to rinse their mouth with water and spit in the discard cup. Subjects then were given unsalted crackers to cleanse the palate. A period of 10 minutes elapsed between presentations of each sample to reduce the potential influence of residual taste effects. A second sample was then presented and evaluated as above and the same procedure was followed until all three products were evaluated. Sample presentation was randomized to avoid order of presentation bias. To participate in the sensory panel, judges or subjects were chosen from an expert taste panel. These subjects were screened for taste acuity and were trained in evaluating solutions using the sip and spit protocol and were trained in using a rating ballot. The number of judges who participated in the study was 20. The female subjects were all non-pregnant and all volunteers were of <55 years of age with no history of allergy to sucrose. Judges were asked to execute an informed consent form. Specifically, the following instructions were given to the judges: Please take a sip of water. Carefully take the cap off the sample cup placed in front of you. Sip, swirl for 3-5 seconds, and then spit the sample into the cup provided, then assess the intensity of the sweetness of the sample. Please evaluate the sample for the intensity of the sweet flavor and put a vertical mark on the number that best describes the intensity. Rinse your mouth with the water provided and spit into the discard cup. Use crackers provided to cleanse your palate before evaluating the next sample. If any other flavor was present in the sample please describe it. Please rinse your mouth again several times and have some more water and unsalted crackers. You will now have a rest period of 10 minutes before you will be given the next sample.

[3] = Double-blind controlled sweetness intensity test, sequential monadic, taste and swallow (Example 6 protocol); assay type: in vivo, human
[4] = Forced-choice taste test of Reb C water solution versus water; assay type: in vivo, human; details: 250 μM Reb C water solution
Description: The taste of a 250 μM Reb C solution was evaluated by a test group having five (5) subjects as follows (Forced-choice): Subjects were presented with 2 cups, each containing 10 ml of either 250 μM Reb C water solution or water (room temperature). […] Subjects were asked to sip most or all of the 10 ml from the first cup, swish the liquid in their oral cavity, and expectorate into a cup, then rinse their mouths vigorously with water. Soon thereafter, the contents of the second cup were sampled in the same manner. Then, subjects were asked to choose the sweeter of the two samples, or if not sweet, to describe the qualitative taste profile of the sample having a detectable taste.

[5] = Open qualitative taste report of Reb C water solutions; assay type: in vivo, human; details: 250 and 300 μM Reb C in water; all 4 subjects gave the same description
Description: The taste of 250 μM and 300 μM Reb C solutions were evaluated as follows by another test group having four (4) subjects as follows: 10 ml solutions of 250 and 300 μM Reb C in water were sampled by four subjects who were asked to report their qualitative taste experience of the solutions.

[6] = Quantitative taste profile by trained panel (sweet, bitter, salt, sour, licorice); assay type: in vivo, human
Description: The taste of 150, 300, and 600 μM Reb C was evaluated by a test group. 10 panelists were trained over a period of a few weeks to provide a quantitative flavor profile of Reb C. Panelists first were trained using standard tastants representing the different taste modalities given in FIG. 7 (i.e., sweet, bitter, salt, sour, and licorice). They then were trained to use the scales when flavors were mixed together. All intensity ratings are on scales ranging from 0 (no taste) to 8 (highest intensity). The intensity rating for sweet is essentially the same as used in Examples 1 and 6. The taste profiles were obtained for 150, 300, and 600 μM Reb C. Reb A (0.2 mg/ml, a concentration used in some food/beverage applications for sweetening) was also evaluated in the test for comparison. The scale is not linear at the bottom. A rating of 1 is around the threshold for sweetness detection.

[7] = sweetness intensities equivalent to 3% (w/v-%) sucrose
[8] = sweetness intensities equivalent to 7% (w/v-%) sucrose
[9] = 300 μM Reb C in 8% (w/v-%) fructose solution, FIG. 16

C=C1C[C@@]23CC[C@H]4[C@@](C)(CCC[C@@]4(C)C(=O)O[C@@H]4O[C@H](CO)[C@@H](O)[C@H](O)[C@H]4O)[C@@H]2CC[C@]1(O[C@@H]1O[C@H](CO)[C@@H](O)[C@H](O[C@@H]2O[C@H](CO)[C@@H](O)[C@H](O)[C@H]2O)[C@H]1O[C@@H]1O[C@H](CO)[C@@H](O)[C@H](O)[C@H]1O)C3 [rebaudioside A]
effect in mixtures with fructose and glucose [1, 7]: additive effect
effect in mixtures with sucrose [1, 7]: synergistic effect
effect in mixtures with fructose, glucose and sucrose ([1]; sweetness intensities equivalent to 5% (w/v-%)): additive effect
effect with a mixture with sucrose [1, 8]: additive effect
effect with mixtures with glucose and fructose [1, 8]: suppressive effect

C=C1C[C@@]23CC[C@H]4[C@@](C)(CCC[C@@]4(C)C(=O)O[C@@H]4O[C@H](CO)[C@@H](O)[C@H](O)[C@H]4O)[C@@H]2CC[C@]1(O[C@@H]1O[C@H](CO)[C@@H](O)[C@H](O[C@@H]2O[C@H](CO)[C@@H](O)[C@H](O)[C@H]2O)[C@H]1O[C@@H]1O[C@@H](C)[C@H](O)[C@@H](O)[C@H]1O)C3 [Reb C, Rebaudioside C]
sweetness of sucrose solution in combination with Reb C ([2]; 150 μM Reb C in 8% (w/v-%) sucrose solution, FIG. 4): between that of the 8% (w/v-%) sucrose solution and that of an 11% (w/v-%) sucrose solution
sweetness of fructose solution in combination with Reb C ([2]; 300 μM Reb C in 5% (w/v-%) fructose solution, FIG. 2): close to that of a 7% (w/v-%) fructose solution
sweetness of sucrose solution in combination with Reb C ([2]; 300 μM Reb C in 5% (w/v-%) sucrose solution, 20 judges, scale 0 to 8, FIG. 1): indistinguishable from that of a 7% (w/v-%) sucrose solution
sweetness of sucrose solution in combination with Reb C ([2]; 300 μM Reb C in 8% (w/v-%) sucrose solution, FIG. 3): close to that of an 11% (w/v-%) sucrose solution
mean sweetness intensity score ([2]; 8% (w/v-%) sucrose solution with 150 μM Reb C, scale 0 to 8, 8% sucrose solution alone scored 5.30): 6.10
statistical significance of the effect of Reb C [3, 9]: not statistically significant
sweetness of fructose solution in combination with Reb C [3, 9]: between that of the 8% (w/v-%) fructose solution and that of an 11% (w/v-%) fructose solution
sweetness of iced tea with sucrose in combination with Reb C ([3]; 300 μM Reb C in iced tea with 8% (w/v-%) sucrose, FIG. 6): between that of the 8% (w/v-%) sucrose solution and that of an 11% (w/v-%) sucrose solution
sweetness of iced tea with HFCS55 in combination with Reb C ([3]; 300 μM Reb C in iced tea with 10.39% (w/v-%) HFCS55, 20 judges, FIG. 5): indistinguishable from that of a 14.29% (w/v-%) HFCS55 (HFCS) solution
sweetness intensity of cola beverage with HFCS55 in combination with Reb C ([3]; 190 ppm Reb C, 10.39% (w/v-%) HFCS55, buffered with citric acid, pH 2.7-2.8, FIG. 10): significantly increases the sweetness intensity to that of 14.29% HFCS55
sweetness of cola beverage with HFCS55 in combination with Reb C ([3]; 190 ppm Reb C, 10.39% (w/v-%) HFCS55, buffered with phosphoric acid, FIG. 14): not higher than that of 10.39% (w/v-%) HFCS55 cola beverage alone
sweetness of lemon-lime soda with HFCS55 in combination with Reb C ([3]; 190 ppm Reb C, 10.39% (w/v-%) HFCS55, citric acid 0.15%, pH 2.6-2.7, FIG. 12): did not reach the sweetness of a 14.29% (w/v-%) HFCS55 solution
sweetness of erythritol solution in combination with Reb C ([3]; 285 ppm (300 μM) Reb C in 7.14% erythritol solution, equivalent to 5% (w/v-%) sucrose, FIG. 9): significantly sweeter than the 7.14% erythritol solution alone, but did not achieve the sweetness of a 10% erythritol solution
sweetness intensity of cola beverage with HFCS55 in combination with Reb C ([3]; 310 ppm Reb C, 10.39% (w/v-%) HFCS55, buffered with phosphoric acid, FIG. 15): increased significantly the sweetness intensity of a cola beverage containing 10.39% (w/v-%) HFCS55, but did not reach the sweetness of a 14.29% (w/v-%) HFCS55 cola beverage
sweetness of unsweetened cola beverage with Reb C ([3]; concentrations 190 ppm or below (95, 190 and 285 ppm tested), FIG. 11): does not increase the sweetness of an unsweetened cola beverage
sweetness of unsweetened lemon-lime soda with Reb C ([3]; control group of Example 11, concentrations 190 ppm or below (95, 190 and 285 ppm tested)): does not increase the sweetness of an unsweetened cola beverage
identification of the sample containing Reb C versus water ([4]; 5 subjects, forced-choice): All subjects correctly identified the sample containing Reb C
qualitative taste description, one per subject ([4]; subjects 1 to 5): Metallic, not sweet; also recorded: Aversive (“Nasty”); also recorded: Slight sweet, astringent; also recorded: Faintly sweet; also recorded: Slight sweet/licorice
qualitative taste description [5]: Both concentrations bitter and/or licorice
unpleasant tastes, bitter and licorice ([6]; 150, 300 and 600 μM Reb C alone, FIG. 7): barely detected
intrinsic sweetness ([6]; 150, 300 and 600 μM Reb C, 10 panelists, scale 0 to 8, FIG. 7): little or no intrinsic sweetness
unpleasant tastes, bitter and licorice, when combined with sugar ([6]; Reb C combined with sugar): undetected

OC[C@H]1O[C@@](CO)(O[C@H]2O[C@H](CO)[C@@H](O)[C@H](O)[C@H]2O)[C@@H](O)[C@@H]1O [sucrose, α-D-glucopyranosyl-(1->2)-β-D-fructofuranose, reference compound]
mean sweetness intensity score ([2]; 11% (w/v-%) sucrose solution, high concentration comparator, scale 0 to 8): 6.95
